Measured values published in PubChem BioAssay (NCI).
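Dose response: 5 concentrations. Exposure: 48 h. Format: 96-well plates. Endpoint: linear interpolation; highest concentration if not reached. TGI: total growth inhibition.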

Legend:
Assay in all cases: NCI-60 cell line screen, 48 h
[1] = test system: PC-3 prostate
[2] = test system: NCI/ADR-RES ovarian
[3] = test system: SNB-75 CNS
[4] = test system: OVCAR-4 ovarian
[5] = test system: M14 melanoma
[6] = test system: NCI-H23 lung
[7] = test system: RXF 393 renal
[8] = test system: RPMI-8226 leukemia
[9] = test system: U251 CNS
[10] = test system: MCF7 breast

Row | Compound | TGI [1] [µM] | TGI [2] [µM] | TGI [3] [µM] | TGI [4] [µM] | TGI [5] [µM] | TGI [6] [µM] | TGI [7] [µM] | TGI [8] [µM] | TGI [9] [µM] | TGI [10] [µM]
1 | Cc1ccc(SC[C@@]2(C(F)F)NC(=O)NC2=O)cc1 | > 100 | > 100 | > 100 | > 100 | > 100 | > 100 | > 100 | > 100 | > 100 | 
2 | CC(=O)CC(C)(C)NC(=O)[C@@]1(O)CC[C@H]2[C@@H]3CCC4=CC(=O)CC[C@@H]4[C@H]3CC[C@@]21C | > 100 | > 100 | > 100 | > 100 | > 100 | > 100 | > 100 | > 100 | > 100 | 
3 | CC(C)C(C/C=C1/CC(CO)(COC(=O)C2CCCCC2)OC1=O)C(C)C (stereo unspecified) | 35.6 | 42.7 | 28.8 | 41.4 | 38.8 | 35.9 | 40.9 |  | 43.9 | 36.3
4 | Cc1ccc(S(=O)(=O)c2ccc([N+](=O)[O-])o2)cc1 | 3.28 | 5.36 | 11.8 | > 22 | 3.82 | 13 | 3.33 |  | 17.7 | 7.13
5 | CC1C2CC(C/C2=N/O)C1(C)C (stereo unspecified) | > 100 |  | > 100 | > 100 | > 100 | > 100 | > 100 |  | > 100 | > 100
6 | COc1cc2c(cc1C)NC(=O)/C2=C\c1ccncc1 | > 100 | 10.7 | 33.7 | > 100 | 12.9 | 9.28 | 13.4 |  | 18.6 | 11.4
7 | O=C1NC2CCCCC2N=C1/C(C(=O)c1ccccc1)=C(\O)c1ccccc1 (stereo unspecified) | > 100 | > 100 |  |  | > 100 | > 100 | > 100 | > 100 | > 100 | > 100
8 | COc1ccc2c(c1OC)C(=O)O[C@@H]2[C@H]1c2cc3c(cc2CCN1C)OCO3 | > 100 | > 100 | > 100 | > 100 | > 100 | > 100 |  | > 100 | > 100 | > 100
9 | CCN1CCCC(Nc2cc(C)nc(/N=C(/N)Nc3ccc(Cl)c(Cl)c3)n2)C1 (stereo unspecified) |  | 8.58 | 2.71 | 4.97 | 0.684 | 4.81 |  | 2.3 | 2.6 | 3.59
10 | CC(=O)Nc1ccc(C(=O)N2N=C(C)/C(=C/c3cccc([N+](=O)[O-])c3)C2=O)cc1 |  |  | > 100 | > 100 | > 100 | > 100 |  | > 100 |  | 
11 | CCC(=O)NC(OCC1(CC)COC1)(C(F)(F)F)C(F)(F)F |  |  | > 100 |  | > 100 | > 100 | > 100 | > 100 | > 100 | > 100
12 | COC(=O)/C=C/c1cc(OC)c2oc(-c3ccc(OC)c(OC)c3)c(C(=O)OC)c2c1 | > 100 | > 100 |  | > 100 | > 100 | > 100 |  | > 100 | > 100 | > 100
13 | CCCCc1ccc(-n2sc3ncccc3c2=O)cc1 | 25.5 | 43.9 | 50.3 | 58 | 26.8 | 41.9 |  | > 100 | 42.7 | 72.2
14 | CN1Cc2c(nc(-c3ccc(Br)cc3)c[n+]2[O-])N(C)C1 |  |  | > 100 | > 100 | > 100 | > 100 | > 100 |  | > 100 | 
15 | CCOC(=O)c1c(NCc2ccccc2)n(-c2ccccc2)c(=S)n(-c2ccccc2)c1=O |  |  | > 100 | > 100 | > 100 | > 100 | > 100 | > 100 | > 100 | > 100
16 | CC1=NN(C(=O)c2ccc(Cl)cc2)C(=O)/C1=C/c1ccc(Cl)cc1 |  |  |  | > 100 | > 100 | > 100 | > 100 | > 100 | > 100 | 
17 | Nc1ccc(C(=O)NN2C(=O)C(Cl)C2c2cccc(O)c2)cc1 (stereo unspecified) |  |  | 56.1 | 34 | 35.2 | 33.2 |  | 41.7 | 25.2 | 
18 | COc1cc(C(c2cccc3ccccc23)N2C(=O)CCC2C(=O)NCc2ccccc2)cc(OC)c1OC (stereo unspecified) |  | > 100 |  | > 100 | > 100 | > 100 | > 100 | > 100 | > 100 | > 100
19 | C[C@@H]1CC[C@@H](C)[C@](C)(CCc2ccoc2)C/C=C\C=C/1C(=O)O | > 50 | > 50 | > 50 | > 50 | > 50 | > 50 | > 50 |  | > 50 | > 50

Row | Compound | TGI [1] [µM] | TGI [2] [µM] | TGI [3] [µM] | TGI [4] [µM] | TGI [5] [µM] | TGI [6] [µM] | TGI [7] [µM] | TGI [8] [µM] | TGI [9] [µM] | TGI [10] [µM]
20 | Cc1occ2c1C(=O)CC1C2[C@@H](O)CC2C(C)(C)CCC[C@]12C (stereo partly specified) |  |  | > 100 | > 100 | > 100 | > 100 | > 100 | > 100 | > 100 | 
21 | O/N=C1\CCc2nonc2\C1=N/Nc1ccccc1 | > 100 | > 100 | > 100 | > 100 | > 100 | > 100 | > 100 | > 100 | > 100 | 
22 | COC(=O)C1=C(C)N(NC(=O)c2ccccc2)C2(O)CCCC(=O)C12C (stereo unspecified) |  |  | > 100 | > 100 | > 100 | > 100 | > 100 | > 100 | > 100 | 
23 | C/C(=C\Cc1cc(O)ccc1O)CCc1c(C)c(O)c(O)c(C=O)c1C |  |  | > 100 | > 100 | 77.3 | 44.7 | 43.8 | 80.3 | 59.6 | 
24 | CCn1c2ccc(O)c(C(=O)OC)c2c2cc3ccccc3c(O)c21 | 78.8 | 57.2 |  | 75.1 | 47.5 | 52.4 | > 100 | 33.3 | 69.2 | > 100
25 | N#Cc1c(Nc2nc3ccccc3s2)c2ccccc2n2c1nc1ccccc12 | > 100 | > 100 | 81 | > 100 | > 100 | > 100 |  | > 100 | > 100 | > 100
26 | O=C1c2ccccc2-c2nc(-c3ccccc3)cc3c2c1nc1ccccc13 | 32.3 | 47.1 |  | > 100 | 18.3 | 16.1 | > 100 | 22 | 39.6 | 21.9
27 | CN(/N=N/c1nc[nH]c1C(N)=O)C1CCCCC1 |  |  | > 100 | > 100 | > 100 | > 100 | > 100 | > 100 | > 100 | 
28 | Clc1nc(Nc2nc3ccccc3[nH]2)nc(Cl)c1Cc1ccccc1 | > 100 | > 100 | > 100 | > 100 | > 100 | > 100 | > 100 | > 100 | > 100 | 
29 | CC(=O)O[C@H]1CN(S(=O)(=O)c2ccc(C)cc2)C[C@@H]1C1CCCCC1 | 58.5 | 58.5 | 63.1 | > 100 | 37.3 | > 100 |  | 79.7 | > 100 | 42.6
30 | CC(C)(C)OC(=O)NCC(=O)NC1C/C(=N\O)c2sccc21 (stereo unspecified) | > 100 | > 100 | > 100 | > 100 | > 100 | > 100 | > 100 |  | > 100 | > 100
31 | COc1ccc(/C(=N/Nc2nc3ccccc3[nH]2)C(=O)O)cc1 | > 100 | > 100 | > 100 | > 100 | > 100 | > 100 |  | > 100 | > 100 | > 100
32 | C#CCSc1nc(N)c2ncn(C3OC(COP(=O)(O)O)C(O)C3O)c2n1 (stereo unspecified) |  |  | > 239 | > 239 | > 239 | > 239 |  | > 239 |  | 
33 | CC(=O)Nc1ccc(C(=O)NN2C(=O)C(Cl)C2c2ccc(O)cc2)cc1 (stereo unspecified) |  |  | > 100 | > 100 | > 100 |  | > 100 |  | > 100 | 
34 | CCCCc1c2c(nc3c1CCc1cc4cc5c(nc4nc1-3)-c1nc3c(c(CCCC)c1CC5)CCC/C3=C\c1ccccc1)/C(=C/c1ccccc1)CCC2 |  |  | > 100 |  | > 100 | > 100 | > 100 | > 100 | > 100 | 
35 | C=CCC1(CC)C(=O)NC(=O)NC1=O |  |  | > 100 |  | > 100 | > 100 | > 100 | > 100 | > 100 | 
36 | COc1cccc(NC(=O)CC(=O)NNCC(=O)Nc2nnc(-c3ccc(N(CCC#N)S(=O)(=O)c4ccccc4)cc3)s2)c1 |  |  |  | > 100 |  | > 100 | > 100 | > 100 | > 100 | 
37 | O/N=C1/C2CC3CC1(c1ccccc1)CC(/C3=N/O)/C2=N\O (stereo unspecified) | > 100 |  | > 100 | > 100 | > 100 | > 100 | > 100 | > 100 | > 100 | > 100
